Laboratory results reported in US20040267001A1, “Genes encoding baeyer-villiger monooxygenases” (priority 2001, published 2004).

Key:
Assay in all cases: chnB monooxygenase activity assay, NADPH oxidation at 340 nm, purified over-expressed enzyme
Type in all cases: biochemical
[1] = tested on: Acidovorax sp. CHX chnB monooxygenase; conditions: 1.25 mM substrate, pH 7.5; ND = No Activity Detected
Description: (§1) Following amplification, the chnB gene fragments were cloned into pTrcHis-TOPO TA vectors with either an N-terminal tail or C-terminal tail, as provided by the vector sequence (N-terminal tail for Brevibacterium sp. HCU, Rhodococcus sp. phi1, Rhodococcus sp. phi2, and Arthrobacter sp. BP2 monooxygenases; C-terminal tail for Acinetobacter sp. SE19 and Acidovorax sp. CHX monooxygenases). These vectors were transformed into E. coli, with transformants grown in Luria-Bertani broth supplemented with ampicillin (100 ug/ml) and riboflavin (0.1 ug/ml) at 30° C. until the absorbance at 600 nm (A600) reached 0.5. When the A600 was reached, the temperature was shifted to 16° C.
(§2) The encoded monooxygenase sequences were expressed upon addition of IPTG to the culture media, 30 min after the temperature shift to 16° C. The cultures were grown further ovemight (14 hrs) and harvested by centrifugation in a cold centrifuge. The cells were treated with lysozyme (100 mg/ml) for 30 min on ice and sonicated. Following sonication, cell extracts were centrifuged and the supernatant was equilibrated with Ni-NTA resin (Qiagen, Valencia, Calif.) for 1 hr at 4° C. Protein bound resin was washed successively with increasing concentrations of imidazole buffer until the protein of interest was released from the resin. The purified protein was concentrated and the buffer exchanged to remove the imidazole. The protein concentration was adjusted to 1 ug/ml.
(§3) Compounds were selected on the basis of previous observations by van der Werf (J. Biochem. 347:693-701 (2000)) and Miyamoto et al. (Biochimica et Biophysica Acta 1251: 115-124 (1995)) and by searches for the ketone substructure.
(§4) All compounds were obtained from Sigma-Aldrich with only two exceptions. Levoglucosenone was obtained from Toronto Research Chemicals, Inc. and dimethyl-2-piperidone was prepared according to U.S. Pat. No. 6,077,955. For enzyme assays all compounds were dissolved to a concentration of 0.1 M in methanol, with the exceptions of norcamphor (dissolved in ethyl acetate), cyclododecanone, cycltridecanone and cyclopentadecanone (dissolved in propanol), and levoglucosenone (dissolved with acetone).
(§5) The monooxygenase activity of each over-expressed enzyme was assayed spectrophotometrically at 340 nm by monitoring the oxidation of NADPH. Assays were performed in individual quartz cuvettes, with a pathlength of 1 cm. […] An Ultrospec 4000 (Pharmacia Biotech, Cambridge, England) was used to read the absorbance of the samples over a two to ten minute time period and the SWIFT (Pharmacia Biotech) program was used to calculate the slope of the reduction in absorbance over time. For the Brevibactedum sp. […] Monooxygenase activity of each over-expressed enzyme is shown in Table 5, with respect to each ketone substrate. The specific activity values listed are given in umol/min/mg. The notation “ND” refers to “No Activity Detected”.

[2] = biological target: T1, Acinetobacter sp. SE19 chnB monooxygenase (Acinetobacter sp., UniProt Q9F7E4); conditions: 1.25 mM substrate, pH 7.5; ND = No Activity Detected
T1 construct: isolated full length BVMO genes from Brevibacterium sp; HCU, Acinetobacter SE19; C-terminal tail provided by the pTrcHis-TOPO vector (C); made in house; host or cells: E. coli
Description: as §1, §2, §3, §4, §5

[3] = tested on: Arthrobacter sp. BP2 chnB monooxygenase; conditions: 1.25 mM substrate, pH 7.5; ND = No Activity Detected
Description: as §1, §2, §3, §4, §5

[4] = tested on: Brevibacterium sp. HCU chnB1 monooxygenase; conditions: 1.25 mM substrate, pH 7.5; ND = No Activity Detected
Description: as §1, §2, §3, §4, §5

[5] = tested on: Brevibacterium sp. HCU chnB2 monooxygenase; conditions: 1.25 mM substrate, pH 7.5; rates multiplied by a factor of 3.25 to adjust for decrease in activity due to storage; ND = No Activity Detected
Description: as §1, §2, §3, §4, §5

[6] = tested on: Rhodococcus sp. phi1 chnB monooxygenase; conditions: 1.25 mM substrate, pH 7.5; ND = No Activity Detected
Description: as §1, §2, §3, §4, §5

[7] = tested on: Rhodococcus sp. phi2 chnB monooxygenase; conditions: 1.25 mM substrate, pH 7.5; ND = No Activity Detected
Description: as §1, §2, §3, §4, §5

SMILES | Specific Activity of Monooxygenase Enzymes Against Various Ketone Substrates, sp. CHX chnB [1] | Specific Activity of Monooxygenase Enzymes Against Various Ketone Substrates, sp. SE19 chnB [2] | Specific Activity of Monooxygenase Enzymes Against Various Ketone Substrates, sp. BP2 chnB [3] | Specific Activity of Monooxygenase Enzymes Against Various Ketone Substrates, sp. HCU chnB1 [4] | Specific Activity of Monooxygenase Enzymes Against Various Ketone Substrates, sp. HCU chnB2 [5] | Specific Activity of Monooxygenase Enzymes Against Various Ketone Substrates, sp. phi1 chnB [6] | Specific Activity of Monooxygenase Enzymes Against Various Ketone Substrates, sp. phi2 chnB [7]
O=C1CCCCC1=O [1,2-cyclohexanedione] | 0.096 µmol/min/mg | 0.077 µmol/min/mg | 0.237 µmol/min/mg | 0.787 µmol/min/mg | 0.416 µmol/min/mg | 0.083 µmol/min/mg | –
O=C1CCCC(=O)C1 [1,3-cyclohexanedione] | 0.032 µmol/min/mg | 0.237 µmol/min/mg | 0.397 µmol/min/mg | 0.237 µmol/min/mg | 0.978 µmol/min/mg | – | 0.141 µmol/min/mg
O=C1CCC(=O)CC1 [1,4-cyclohexanedione] | 0.794 µmol/min/mg | 8.346 µmol/min/mg | 3.994 µmol/min/mg | 3.405 µmol/min/mg | 1.123 µmol/min/mg | 3.302 µmol/min/mg | 6.150 µmol/min/mg
CC1CCCCC1=O (stereo not drawn) [2-methyl-cyclohexanone] | 0.627 µmol/min/mg | 9.990 µmol/min/mg | 4.205 µmol/min/mg | 2.714 µmol/min/mg | 1.622 µmol/min/mg | 4.774 µmol/min/mg | 5.952 µmol/min/mg
O=C1CCCCC1c1ccccc1 (stereo not drawn) [2-phenyl-cyclohexanone] | 0.192 µmol/min/mg | 5.370 µmol/min/mg | – | 1.459 µmol/min/mg | 0.104 µmol/min/mg | 1.050 µmol/min/mg | 0.730 µmol/min/mg
CCCCCCCCCCCC(C)=O [2-tridecanone] | 0.096 µmol/min/mg | – | – | – | 0.187 µmol/min/mg | 0.160 µmol/min/mg | 1.690 µmol/min/mg
O=C1CCC1 [Cyclobutanone] | – | 0.109 µmol/min/mg | 0.128 µmol/min/mg | – | 0.374 µmol/min/mg | 0.102 µmol/min/mg | 0.154 µmol/min/mg
O=C1CCCCCCCCC1 [Cyclodecanone] | 0.160 µmol/min/mg | 0.320 µmol/min/mg | 0.166 µmol/min/mg | – | – | 0.077 µmol/min/mg | 0.205 µmol/min/mg
O=C1CCCCCCCCCCC1 [Cyclododecanone] | 0.051 µmol/min/mg | 0.122 µmol/min/mg | 0.198 µmol/min/mg | – | 0.229 µmol/min/mg | – | 0.122 µmol/min/mg
O=C1CCCCCCC1 [Cyclooctanone] | 0.410 µmol/min/mg | 1.984 µmol/min/mg | 0.646 µmol/min/mg | – | – | 0.627 µmol/min/mg | 0.141 µmol/min/mg
O=C1CCCCCCCCCCCCCC1 [Cyclopenta-decanone] | – | 0.109 µmol/min/mg | 0.122 µmol/min/mg | – | – | 0.122 µmol/min/mg | –
O=C1CCCC1 [Cyclopentanone] | 0.621 µmol/min/mg | 3.034 µmol/min/mg | 1.491 µmol/min/mg | – | 1.331 µmol/min/mg | 1.370 µmol/min/mg | 2.451 µmol/min/mg
O=C1CCCCCCCCCCCC1 [Cyclotridecanone] | – | 0.166 µmol/min/mg | 0.147 µmol/min/mg | – | – | – | 0.109 µmol/min/mg
O=C1CCCCCCCCCC1 [Cycloundecanone] | 0.058 µmol/min/mg | 0.064 µmol/min/mg | 0.064 µmol/min/mg | – | 0.125 µmol/min/mg | – | 0.051 µmol/min/mg
O=C1C=C[C@H]2CO[C@@H]1O2 [Levoglucosenone] | 0.147 µmol/min/mg | 1.126 µmol/min/mg | 0.525 µmol/min/mg | – | – | 0.461 µmol/min/mg | 0.506 µmol/min/mg
OB(O)c1ccccc1 [Phenylboronic acid] | – | 0.102 µmol/min/mg | 0.192 µmol/min/mg | 1.606 µmol/min/mg | – | – | 0.109 µmol/min/mg
CCCCCCC(=O)CCCCCC [dihexyl ketone] | – | – | – | – | 0.270 µmol/min/mg | 0.160 µmol/min/mg | –
C[S+](C)[O-] [dimethyl sulfoxide] | 0.358 µmol/min/mg | 0.819 µmol/min/mg | 0.422 µmol/min/mg | 0.230 µmol/min/mg | – | 0.518 µmol/min/mg | 0.544 µmol/min/mg
